# Source: US8192962B2, “Processes for detecting toxic substances” (Daikin Industries, Ltd., priority 2001, dated 2012)
# System: Energy system protein genes
# Test: DNA chip mRNA expression in yeast, energy system protein genes (Table 4)
# Type: cell-based, Saccharomyces cerevisiae S288C
# Method in brief: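 Value is the scanned fluorescence intensity ratio of exposed versus chemical-free cells. Log-phase S288C yeast in YPD at 25° C. received one toxic substance for two hours, dosed to slow growth without killing; Cy3/Cy5-labeled cDNA from oligo-dT-purified mRNA was hybridized to a whole-genome chip at 65° C.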
structure (smiles),measurement,setting,value
"CCCCCCCCCCCCOS(=O)(=O)[O-].[Na+] [(18), sodium lauryl sulfate]",The level of expressed mRNA in the presence of chemical substance/The level of expressed mRNA in the absence of chemical substance,yeast gene YJR009C,1.3
same,The level of expressed mRNA in the presence of chemical substance/The level of expressed mRNA in the absence of chemical substance,yeast gene YJR048W,1.2
same,The level of expressed mRNA in the presence of chemical substance/The level of expressed mRNA in the absence of chemical substance,"yeast gene YJR121W, cells incubated two hours with the chemical substance",1.4
same,The level of expressed mRNA in the presence of chemical substance/The level of expressed mRNA in the absence of chemical substance,yeast gene YJR155W,1.4
same,The level of expressed mRNA in the presence of chemical substance/The level of expressed mRNA in the absence of chemical substance,"yeast gene YKL016C, cells incubated two hours with the chemical substance",1.7
same,The level of expressed mRNA in the presence of chemical substance/The level of expressed mRNA in the absence of chemical substance,"yeast gene YKL060C, cells incubated two hours with the chemical substance",1.7
same,The level of expressed mRNA in the presence of chemical substance/The level of expressed mRNA in the absence of chemical substance,"yeast gene YKL141W, cells incubated two hours with the chemical substance",1.8
same,The level of expressed mRNA in the presence of chemical substance/The level of expressed mRNA in the absence of chemical substance,"yeast gene YKL148C, cells incubated two hours with the chemical substance",1.0
same,The level of expressed mRNA in the presence of chemical substance/The level of expressed mRNA in the absence of chemical substance,"yeast gene YKR009C, cells incubated two hours with the chemical substance",2.5
same,The level of expressed mRNA in the presence of chemical substance/The level of expressed mRNA in the absence of chemical substance,"yeast gene YKR058W, cells incubated two hours with the chemical substance, 25° C., YPD medium",1.6
same,The level of expressed mRNA in the presence of chemical substance/The level of expressed mRNA in the absence of chemical substance,yeast gene YKR097W,1.5
same,The level of expressed mRNA in the presence of chemical substance/The level of expressed mRNA in the absence of chemical substance,"yeast gene YLL041C, cells incubated two hours with the chemical substance",1.7
same,The level of expressed mRNA in the presence of chemical substance/The level of expressed mRNA in the absence of chemical substance,"yeast gene YLR038C, cells incubated two hours with the chemical substance",2.1
same,The level of expressed mRNA in the presence of chemical substance/The level of expressed mRNA in the absence of chemical substance,"yeast gene YLR044C, cells incubated two hours with the chemical substance",0.9
same,The level of expressed mRNA in the presence of chemical substance/The level of expressed mRNA in the absence of chemical substance,"yeast gene YLR134W, cells incubated two hours with the chemical substance",0.8
same,The level of expressed mRNA in the presence of chemical substance/The level of expressed mRNA in the absence of chemical substance,"yeast gene YLR258W, cells incubated two hours with the chemical substance",2.0
same,The level of expressed mRNA in the presence of chemical substance/The level of expressed mRNA in the absence of chemical substance,"yeast gene YLR284C, cells incubated two hours with the chemical substance",8.1
same,The level of expressed mRNA in the presence of chemical substance/The level of expressed mRNA in the absence of chemical substance,"yeast gene YLR295C, cells incubated two hours with the chemical substance, 25° C., YPD medium",1.5
same,The level of expressed mRNA in the presence of chemical substance/The level of expressed mRNA in the absence of chemical substance,"yeast gene YLR304C, cells incubated two hours with the chemical substance",0.7
same,The level of expressed mRNA in the presence of chemical substance/The level of expressed mRNA in the absence of chemical substance,yeast gene YLR345W,1.4
same,The level of expressed mRNA in the presence of chemical substance/The level of expressed mRNA in the absence of chemical substance,"yeast gene YLR354C, cells incubated two hours with the chemical substance",1.5
same,The level of expressed mRNA in the presence of chemical substance/The level of expressed mRNA in the absence of chemical substance,"yeast gene YLR377C, cells incubated two hours with the chemical substance",1.4
same,The level of expressed mRNA in the presence of chemical substance/The level of expressed mRNA in the absence of chemical substance,"yeast gene YLR395C, cells incubated two hours with the chemical substance",2.3
same,The level of expressed mRNA in the presence of chemical substance/The level of expressed mRNA in the absence of chemical substance,yeast gene YML087C,0.8
same,The level of expressed mRNA in the presence of chemical substance/The level of expressed mRNA in the absence of chemical substance,"yeast gene YML120C, cells incubated two hours with the chemical substance",1.6
same,The level of expressed mRNA in the presence of chemical substance/The level of expressed mRNA in the absence of chemical substance,"yeast gene YML129C, cells incubated two hours with the chemical substance",1.3
same,The level of expressed mRNA in the presence of chemical substance/The level of expressed mRNA in the absence of chemical substance,"yeast gene YMR073C, cells incubated two hours with the chemical substance",1.2
same,The level of expressed mRNA in the presence of chemical substance/The level of expressed mRNA in the absence of chemical substance,yeast gene YMR118C,1.0
same,The level of expressed mRNA in the presence of chemical substance/The level of expressed mRNA in the absence of chemical substance,"yeast gene YMR205C, cells incubated two hours with the chemical substance",0.5
same,The level of expressed mRNA in the presence of chemical substance/The level of expressed mRNA in the absence of chemical substance,"yeast gene YMR261C, cells incubated two hours with the chemical substance",1.1
same,The level of expressed mRNA in the presence of chemical substance/The level of expressed mRNA in the absence of chemical substance,"yeast gene YMR267W, cells incubated two hours with the chemical substance, 25° C., YPD medium",1.3
same,The level of expressed mRNA in the presence of chemical substance/The level of expressed mRNA in the absence of chemical substance,"yeast gene YMR323W, cells incubated two hours with the chemical substance",0.6
same,The level of expressed mRNA in the presence of chemical substance/The level of expressed mRNA in the absence of chemical substance,yeast gene YNL071W,1.2
same,The level of expressed mRNA in the presence of chemical substance/The level of expressed mRNA in the absence of chemical substance,"yeast gene YNL202W, cells incubated two hours with the chemical substance",3.3
same,The level of expressed mRNA in the presence of chemical substance/The level of expressed mRNA in the absence of chemical substance,yeast gene YNL241C,1.0
same,The level of expressed mRNA in the presence of chemical substance/The level of expressed mRNA in the absence of chemical substance,yeast gene YNL331C,1.3
same,The level of expressed mRNA in the presence of chemical substance/The level of expressed mRNA in the absence of chemical substance,"yeast gene YOL086C, cells incubated two hours with the chemical substance",1.3
same,The level of expressed mRNA in the presence of chemical substance/The level of expressed mRNA in the absence of chemical substance,yeast gene YOL165C,1.0
same,The level of expressed mRNA in the presence of chemical substance/The level of expressed mRNA in the absence of chemical substance,"yeast gene YOR142W, cells incubated two hours with the chemical substance",1.0
same,The level of expressed mRNA in the presence of chemical substance/The level of expressed mRNA in the absence of chemical substance,"yeast gene YOR178C, cells incubated two hours with the chemical substance",1.5
same,The level of expressed mRNA in the presence of chemical substance/The level of expressed mRNA in the absence of chemical substance,"yeast gene YOR388C, cells incubated two hours with the chemical substance",0.9
same,The level of expressed mRNA in the presence of chemical substance/The level of expressed mRNA in the absence of chemical substance,"yeast gene YPL031C, cells incubated two hours with the chemical substance",1.2
same,The level of expressed mRNA in the presence of chemical substance/The level of expressed mRNA in the absence of chemical substance,"yeast gene YPL061W, cells incubated two hours with the chemical substance",2.6
same,The level of expressed mRNA in the presence of chemical substance/The level of expressed mRNA in the absence of chemical substance,yeast gene YPL088W,8.3
same,The level of expressed mRNA in the presence of chemical substance/The level of expressed mRNA in the absence of chemical substance,yeast gene YPL171C,1.5
same,The level of expressed mRNA in the presence of chemical substance/The level of expressed mRNA in the absence of chemical substance,yeast gene YPL240C,1.0
same,The level of expressed mRNA in the presence of chemical substance/The level of expressed mRNA in the absence of chemical substance,"yeast gene YPL262W, cells incubated two hours with the chemical substance",1.2
same,The level of expressed mRNA in the presence of chemical substance/The level of expressed mRNA in the absence of chemical substance,"yeast gene YPL275W, cells incubated two hours with the chemical substance",1.0
same,The level of expressed mRNA in the presence of chemical substance/The level of expressed mRNA in the absence of chemical substance,"yeast gene YPL276W, cells incubated two hours with the chemical substance",0.8
same,The level of expressed mRNA in the presence of chemical substance/The level of expressed mRNA in the absence of chemical substance,"yeast gene YPR048W, cells incubated two hours with the chemical substance",0.8
same,The level of expressed mRNA in the presence of chemical substance/The level of expressed mRNA in the absence of chemical substance,"yeast gene YPR184W, cells incubated two hours with the chemical substance",1.7
